Counter-ions that a name gives are not always drawn.

These results are taken from US20250205248A1, “REPURPOSING VARENICLINE AS AN ANTI-INFLAMMATORY AGENT WITH ITS SUPPRESSOR EFFECTS ON INFLAMMATORY CYTOKINES” (IZMIR EKONOMI UNIVERSITESI, priority 2022, published 2025).

The subject of one test is sepsis. Conditions: cited from earlier work.
Test [1] concerns LPS-activated RAW264.7 macrophage cell cultures. To be noted: cited from earlier work.
Test [2] relates to RAW 264.7 murine macrophage cells. The experiment in a line: LPS-induced inflammatory cytokine levels (IL-1β, IL-6, TNFα) by ELISA in RAW 264.7 cells. Conditions: for IL-1β level in presence of nAChR antagonist / IL-6 level in presence of nAChR antagonist / TNFα level in presence of nAChR antagonist: antagonist 30 minutes before varenicline and LPS, compared to varenicline-treated groups. The format is cell-based. As for the experimental part: RAW 264.7 murine macrophage cells maintained in culture media supplemented with heat inactivated FBS (10%) and penicillin (100 U/ml) and streptomycin (100 μg/ml) at 37° C. in a 5% CO2 incubator were used during the experimental studies. The cells (500,000/well) were seeded in 48-well culture plates after detachment with scraping incubated for 24 h in serum-free media for reattachment to the surface. In the first group, the cells were treated with LPS at increasing concentrations to determine the effective concentration at which cytokines are released. In the second group, the cells were pretreated with varenicline tartarate with increasing concentrations in presence of LPS to determine effective varenicline concentration on LPS-induced cytokine levels. Additionally, the anti-inflammatory effect of varenicline was compared with that of dexamethasone. In the third group, a non-selective nicotinic ACh receptor antagonist mecamylamine hydrochloride and a selective α7nAChR antagonist methyllycaconitine citrate were applied prior to varenicline and LPS administration in order to investigate the involvement of nicotinic receptors.
The inflammatory response of macrophage cells was evaluated by the change in inflammatory cytokine levels (IL-1β, IL-6 and TNFα) after 24 hours. In other groups where the effect of varenicline will be investigated, the LPS concentration, which triggers the increase in all cytokines determined in the first group and employed for the induction of inflammatory response. Increasing concentrations of varenicline were administered 30 minutes before LPS administration, LPS-induced cytokine levels were analyzed at the end of 24-hour protocol and the effective concentration on cytokine levels were determined in the second group. The effective concentration of varenicline was used in the third group in which the receptor-mediated effects investigated.
(§1) Antagonist drugs was applied 30 minutes before varenicline and LPS applications. Thus, the role of α7nAChRs and activation of the cholinergic anti-inflammatory pathway was determined at the end of 24-hour protocol by examining LPS-induced inflammatory cytokine levels (IL-1β, IL-6 and TNFα) in addition to 40 different cytokines and chemokines.
(§2) The results are as follows for the application of the invention. (1) Cytokine levels (IL-1β, IL-6 and TNFα) examined by the ELISA method were increased at the end of 24-hour protocol after induced by LPS in RAW 264.7 cells.
On the technique in general: ELISA stands for enzyme-linked immunosorbent assay.

In the next test the target is α4β2nAChRs (Homo sapiens, UniProt P17787+P43681). To be noted: central nervous system; cited from earlier work.
For test [3], the system named is RAW 264.7 murine macrophage cells. Nature of the test: LPS-induced macrophage migration. The format is cell-based. How it is done: (§3) Here, in the application subject invention, the anti-inflammatory potential of varenicline, which is used in the treatment of smoking cessation, was determined for the first time by suppressing increased cytokine levels in inflammatory conditions. According to the current study, the anti-inflammatory activity of varenicline is not limited to its suppression of cytokine levels, but is also associated with suppressed proliferation and macrophage migration rates (FIGS. 4A-6C).
FIGS. 5A-5B. Effects of varenicline on LPS-induced cell migration in the presence or absence of nAChR antagonists
(§4) This invention points out repurposing of varenicline and provides mechanical insights about the effects of varenicline on α7nAChR-mediated activation of cholinergic anti-inflammatory pathway (CAP), cell proliferation, and migration in the in vitro inflammation model induced by LPS.

A further test deals with smokers. To be noted: 3 months of treatment; cited from earlier work.
For the next test, the target named is α7nAChRs (Homo sapiens, UniProt P36544). To be noted: cited from earlier work.
Test [4] relates to transient middle cerebral artery ischemia model. To be noted: mice, treatment for one week, cited from earlier work.
Test [5] concerns RAW 264.7 murine macrophage cells. Nature of the test: LPS-induced cell proliferation. In kind it is cell-based. As for the experimental part: as §3
FIGS. 4A-4B. Effects of varenicline on LPS-induced cell proliferation in the presence or absence of nAChR antagonists.
as §4

Another test relates to RAW 264.7 macrophages. The experiment in a line: LPS-induced cytokine and chemokine panel in RAW 264.7 macrophages. The format is cell-based, mouse. As for the experimental part: FIGS. 6A-6C. Effects of varenicline on LPS-induced 14 mouse cytokines levels in RAW 264.7 macrophages.
as §1, §2

For test [6], the system named is emphysema induced by porcine pancreatic elastase. Conditions: mice, PPE emphysema, cited from earlier work.
The subject of test [7] is RAW 264.7 macrophage cells stimulated with LPS. To be noted: via α7nAChR activation; LPS-stimulated RAW 264.7; cited from earlier work.
Where [8] appears, read: varenicline 30 minutes before LPS, 24-hour protocol, compared to the LPS group.

Sequence of α4β2nAChRs (P43681 29-627 limits assumed): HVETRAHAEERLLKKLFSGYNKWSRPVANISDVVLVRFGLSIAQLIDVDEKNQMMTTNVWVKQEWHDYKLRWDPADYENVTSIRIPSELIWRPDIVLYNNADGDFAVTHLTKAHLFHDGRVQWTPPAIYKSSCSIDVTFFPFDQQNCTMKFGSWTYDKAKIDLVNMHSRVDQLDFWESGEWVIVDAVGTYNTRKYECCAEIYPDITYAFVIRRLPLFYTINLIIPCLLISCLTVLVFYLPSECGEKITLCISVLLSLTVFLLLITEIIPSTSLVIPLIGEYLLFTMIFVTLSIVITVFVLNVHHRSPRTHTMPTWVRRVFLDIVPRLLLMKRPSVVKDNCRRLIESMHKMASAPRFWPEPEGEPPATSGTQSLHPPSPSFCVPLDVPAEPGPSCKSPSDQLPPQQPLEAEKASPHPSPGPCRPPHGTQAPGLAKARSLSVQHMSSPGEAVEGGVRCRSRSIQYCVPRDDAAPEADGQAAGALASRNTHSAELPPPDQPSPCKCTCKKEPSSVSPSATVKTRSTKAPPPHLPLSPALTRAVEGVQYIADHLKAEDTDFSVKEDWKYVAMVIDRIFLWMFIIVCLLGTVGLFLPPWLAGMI
Sequence of α4β2nAChRs (P17787 26-502): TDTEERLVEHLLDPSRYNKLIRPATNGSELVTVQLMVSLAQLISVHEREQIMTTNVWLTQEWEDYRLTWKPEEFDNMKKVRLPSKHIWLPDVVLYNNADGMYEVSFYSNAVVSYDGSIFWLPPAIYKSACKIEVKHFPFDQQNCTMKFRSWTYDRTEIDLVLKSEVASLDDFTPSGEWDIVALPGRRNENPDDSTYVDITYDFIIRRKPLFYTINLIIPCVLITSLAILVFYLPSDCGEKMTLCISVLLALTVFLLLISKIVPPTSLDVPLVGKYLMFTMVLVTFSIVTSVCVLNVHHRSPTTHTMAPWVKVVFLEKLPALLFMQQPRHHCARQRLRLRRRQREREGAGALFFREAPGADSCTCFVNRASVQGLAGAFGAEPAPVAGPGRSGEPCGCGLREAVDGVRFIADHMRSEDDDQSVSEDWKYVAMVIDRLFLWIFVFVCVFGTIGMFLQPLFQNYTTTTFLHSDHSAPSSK
Sequence of α7nAChRs (P36544 23-502): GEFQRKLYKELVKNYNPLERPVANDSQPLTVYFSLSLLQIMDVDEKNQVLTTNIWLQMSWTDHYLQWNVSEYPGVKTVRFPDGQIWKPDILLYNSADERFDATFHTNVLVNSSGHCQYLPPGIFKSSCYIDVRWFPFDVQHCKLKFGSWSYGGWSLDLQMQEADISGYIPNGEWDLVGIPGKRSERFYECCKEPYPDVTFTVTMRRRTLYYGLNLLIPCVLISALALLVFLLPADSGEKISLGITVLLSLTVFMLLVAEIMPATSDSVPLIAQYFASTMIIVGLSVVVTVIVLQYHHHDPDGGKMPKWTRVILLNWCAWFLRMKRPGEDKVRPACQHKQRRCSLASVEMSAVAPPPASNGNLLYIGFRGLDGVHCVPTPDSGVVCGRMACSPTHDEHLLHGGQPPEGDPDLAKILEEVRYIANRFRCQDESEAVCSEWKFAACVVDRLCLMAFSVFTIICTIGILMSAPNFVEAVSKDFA

For `COc1ccc(/C=C2\CCCN=C2c2cccnc2)c(OC)c1` [GTS-21], in the test with sepsis, the “cytokine levels that increased due to inflammation” value is “decreased” and the “life span of experimental animals” value is “extended”. In [1], the HMGB-1 level result is “significantly reduces” and the TNFα level result is “significantly reduces”.
On to `CNC1(C)C2CCC(C2)C1(C)C` (stereo not shown) [MEC, mecamylamine hydrochloride], for which, in [2], the “IL-1β level in presence of nAChR antagonist” value was “significantly increased”, the “IL-6 level in presence of nAChR antagonist” value was “significantly increased” and the “TNFα level in presence of nAChR antagonist” value is “significantly increased”.
`c1cnc2cc3c(cc2n1)[C@@H]1CNC[C@H]3C1` [Varenicline, varenicline]: the “effect on α4β2nAChRs” value at α4β2nAChRs is “partial agonistic effect”. Also, the macrophage migration rate entry in test [3] is reported as “suppressed”. In the test with smokers, the atherosclerosis result was “reduced”, the endothelial damage entry was “reduced” and the oxidative stress result is given as “reduced”. Further, the “effect on α7nAChRs” value on α7nAChRs was “potent and complete agonist”. Further, the “use of damaged forelimbs” value in test [4] is given as “increased”. The “inflammation in the corpus striatum” value in [4] (immunohistochemical analysis) is given as “decreased”. Further, in test [5], the proliferation rate entry is listed as “suppressed”. Further, the “LPS-induced 14 different cytokines and chemokines (G-CSF, GM-CSF, IL-1, IL-6, IL-27, IL-1ra, IP-10, MCP-1, MIP-1, RANTES, TNF α)” value with RAW 264.7 macrophages is “significantly decreased”. In test [2] (setting [8]), the IL-1β level entry is recorded as “significantly decreased”, the IL-6 level result is “significantly decreased” and the TNFα level entry was “significantly decreased”. For the same compound, the inflammation entry in test [6] (immunohistochemical analysis) was “reduce”. Further, in test [6] (with activation of α7nAChR), the “number of T cells in tissue” value was “significantly reduced”, the “number of macrophages in tissue” value is on record as “significantly reduced” and the “number of neutrophils in tissue” value is given as “significantly reduced”.
Consider `CN1CCCC1c1cccnc1` (stereo not shown) [nicotine], for which the TNFα levels entry in test [7] is “decrease”.
As for methyllycaconitine citrate [MLA], in [2], the “IL-1β level in presence of nAChR antagonist” value is “significantly increased”, the “IL-6 level in presence of nAChR antagonist” value is “significantly increased” and the “TNFα level in presence of nAChR antagonist” value is listed as “significantly increased”.
